SMILES strings stand for the structures. *1 amine or outer side, *2 acyl side, *3 side chain or, on linkers, in order; H or OH if unused. Where a SMILES comes first, the peptide text is derived from it. Side-chain parts run from the residue outwards. [ ]: non-standard residue; d: D form. The star is where a group is joined. C20 diacid = O=C(O)CCCCCCCCCCCCCCCCCCC(=O)*; γGlu = O=C(O)[C@H](CCC(=O)[*:2])N[*:1]; X27 = O=C1CC(C(=O)*)(c2ccccc2)CN1; X18 = O=C(C1(c2cccc(F)c2)CCCC1)*; X78 = CC(C)(C(=O)*)C1CCCCC1; AEEA = NCCOCCOCC(=O)O; Aib = CC(C)(N)C(=O)O; Piv = CC(C)(C)C(=O)*; GABA = NCCCC(=O)O; βAla = NCCC(=O)O A value given as a limit tells only on which side of the number the result lay.

Common to all, as to format: cell-based
In assay [1] the target is T1, GLP-1 receptor (Homo sapiens, UniProt P43220). The assay is described as follows: HitHunter cAMP assay, GLP-1 receptor. Conditions: for EC50: CHO cells stably expressing human GLP-1 receptor, cAMP accumulation, 30 min, read-out: EC50 GLP-1R; for Emax: CHO cells, cAMP, normalized to maximum signal from GLP-1 (high) and DMSO (low), read-out: Emax GLP-1R. In general terms: cAMP levels reflect the balance of adenylyl cyclase and phosphodiesterase activity.

For assay [2], the target named is T2, GIP receptor (Homo sapiens, UniProt P48546).
T2 sequence (P48546 22-466): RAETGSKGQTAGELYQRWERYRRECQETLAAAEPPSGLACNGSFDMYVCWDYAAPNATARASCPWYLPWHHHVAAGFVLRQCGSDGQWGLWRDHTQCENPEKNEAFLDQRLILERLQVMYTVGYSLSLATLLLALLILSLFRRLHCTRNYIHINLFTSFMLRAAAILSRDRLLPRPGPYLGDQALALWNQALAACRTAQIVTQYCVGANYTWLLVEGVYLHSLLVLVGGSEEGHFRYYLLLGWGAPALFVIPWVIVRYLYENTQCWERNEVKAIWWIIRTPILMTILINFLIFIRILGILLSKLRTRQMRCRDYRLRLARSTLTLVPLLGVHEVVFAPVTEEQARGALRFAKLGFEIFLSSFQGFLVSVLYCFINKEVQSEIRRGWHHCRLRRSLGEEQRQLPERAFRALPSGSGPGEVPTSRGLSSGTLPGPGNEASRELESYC
The assay is described as follows: HitHunter cAMP assay, GIP receptor. Conditions: for EC50: CHO cells stably expressing GIP receptor, cAMP accumulation, 30 min, read-out: EC50 GIP-1R; for Emax: CHO cells, cAMP, normalized to maximum signal from GIP (high) and DMSO (low), read-out: Emax GIP-1R.
Method: CAMP accumulation was measured in Chinese hamster ovary (CHO) cells stably expressing the human GLP-1 receptor or GIP receptor using the HitHunter CAMP Assay for Small Molecules Kit (Eurofins). Briefly, cells were grown in Ham's F12 Nutrient Mix with 10% FBS and lifted with Cell dissociation buffer, Enzyme free, PBS based (ThermoFisher). Cells were pelleted and resuspended in Hank's buffered saline solution with 10 mM Hepes and 625 μM 3-isobutyl-1-methylxanthine. The antibody reagent was then added to cells at a 1:2 ratio and 5 μL of mixture was seeded in 384-well small volume white assay plates, at 10,000 cells/well. Cells were then treated with 50 nl compound in DMSO using an ECHO 550 acoustic dispenser (Labcyte) in a 20-point dose response format in triplicate for 30 min. Cells were the lysed and detection reagents added according to the manufacturer's protocol. After overnight incubation, luminescence was measured using a Perkin Elmer Envision plate reader. Raw data was normalized to the maximum signal from GLP-1 or GIP (high) and DMSO (low). Dose response curves were analyzed using GraphPad Prism 9.0.

Assay [3] has as its target T2, GIP receptor. Nature of the assay: PathHunter β-arrestin assay, GIP receptor. Set-up: host or cells: PathHunter CHO-K1 GIPR β-Arrestin Cell Line. Conditions: β-arrestin-2 recruitment, PathHunter CHO-K1 GIPR β-Arrestin Cell Line, 90 min at 37° C.; normalized to GIP; read-out: GIPR β Arrestin EC50. A general note: Activated receptors often draw arrestin, which recruitment assays turn into a signal.

Assay [4] addresses T1, GLP-1 receptor. The assay is described as follows: PathHunter β-arrestin assay, GLP-1 receptor. Set-up: host or cells: PathHunter CHO-K1 GLP1R β-Arrestin Cell Line. The note with it: β-arrestin-2 recruitment, PathHunter CHO-K1 GLP1R β-Arrestin Cell Line, 90 min at 37° C.; normalized to GLP-1; read-out: GLP-1R β Arrestin EC50.

T1 sequence (P43220 24-463): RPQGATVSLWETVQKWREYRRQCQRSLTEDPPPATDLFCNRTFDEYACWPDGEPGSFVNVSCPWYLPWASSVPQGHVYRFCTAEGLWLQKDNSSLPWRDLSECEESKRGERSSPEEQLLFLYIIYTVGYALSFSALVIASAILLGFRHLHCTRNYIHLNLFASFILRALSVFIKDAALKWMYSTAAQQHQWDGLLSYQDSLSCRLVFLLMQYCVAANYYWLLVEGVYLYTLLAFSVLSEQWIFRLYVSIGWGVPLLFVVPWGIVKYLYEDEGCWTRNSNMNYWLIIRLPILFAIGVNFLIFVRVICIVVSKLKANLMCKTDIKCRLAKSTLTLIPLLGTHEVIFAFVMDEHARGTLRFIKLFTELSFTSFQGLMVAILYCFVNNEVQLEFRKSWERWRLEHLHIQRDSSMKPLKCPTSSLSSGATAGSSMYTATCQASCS

For orientation: EC50 means the concentration needed to bring the measured effect to its halfway point. In general, Emax refers to the size of the effect at its maximum, as opposed to the concentration needed. For `CC[C@H](C)[C@H](NC(=O)[C@H](CC(C)C)NC(=O)[C@H](Cc1c[nH]c2ccccc12)NC(=O)[C@H](CCC(N)=O)NC(=O)[C@@H](NC(=O)[C@H](Cc1ccccc1)NC(=O)[C@H](C)NC(=O)[C@H](CCCCNC(=O)COCCOCCNC(=O)COCCOCCNC(=O)CC[C@H](NC(=O)CCCCCCCCCCCCCCCCCCC(=O)O)C(=O)O)NC(=O)[C@H](CCC(N)=O)NC(=O)[C@H](C)NC(=O)[C@@H](NC(=O)[C@H](CCCCN)NC(=O)[C@H](CC(=O)O)NC(=O)[C@H](CC(C)C)NC(=O)C(C)(C)NC(=O)[C@@H](NC(=O)[C@H](CO)NC(=O)[C@H](Cc1ccc(O)cc1)NC(=O)[C@H](CC(=O)O)NC(=O)[C@H](CO)NC(=O)[C@@H](NC(=O)[C@H](Cc1ccccc1)NC(=O)[C@@H](NC(=O)CNC(=O)[C@H](CCC(=O)O)NC(=O)CCNC(=O)C(C)(C)C1CCCCC1)[C@@H](C)O)[C@@H](C)O)[C@@H](C)CC)[C@@H](C)CC)C(C)C)C(=O)N[C@@H](C)C(=O)NCC(=O)NCC(=O)N1CCC[C@H]1C(=O)N[C@@H](CO)C(=O)N[C@@H](CO)C(=O)NCC(=O)N[C@@H](C)C(=O)N1CCC[C@H]1C(=O)N1CCC[C@H]1C(=O)N1CCC[C@H]1C(=O)N[C@@H](CO)C(N)=O` [Compound 205] ({X78-βAla}-EGTFTSDYSI[Aib]LDKIAQK([AEEA-AEEA-γGlu-C20 diacid])AFVQWLIAGGPSSGAPPPS-NH2), the EC50 at GLP-1 receptor [1] is 1 to 10 nM; at GIP receptor [2] it was 10 to 100 nM; at GIP receptor [3], greater than 1000 nM; at GLP-1 receptor [4], greater than 1000 nM. For the same compound, the Emax on GLP-1 receptor [1] and on GIP receptor [2] was 99% throughout.
For the compound `CC[C@H](C)[C@H](NC(=O)[C@H](CC(C)C)NC(=O)[C@H](Cc1c[nH]c2ccccc12)NC(=O)[C@H](CCC(N)=O)NC(=O)[C@@H](NC(=O)[C@H](Cc1ccccc1)NC(=O)[C@H](C)NC(=O)[C@H](CCCCNC(=O)COCCOCCNC(=O)COCCOCCNC(=O)CC[C@H](NC(=O)CCCCCCCCCCCCCCCCCCC(=O)O)C(=O)O)NC(=O)[C@H](CCC(N)=O)NC(=O)[C@H](C)NC(=O)[C@@H](NC(=O)[C@H](CCCCN)NC(=O)[C@H](CC(=O)O)NC(=O)[C@H](CC(C)C)NC(=O)C(C)(C)NC(=O)[C@@H](NC(=O)[C@H](CO)NC(=O)[C@H](Cc1ccc(O)cc1)NC(=O)[C@H](CC(=O)O)NC(=O)[C@H](CO)NC(=O)[C@@H](NC(=O)[C@H](Cc1ccccc1)NC(=O)[C@@H](NC(=O)CNC(=O)[C@H](CCC(=O)O)NC(=O)CCNC(=O)C1(c2cccc(F)c2)CCCC1)[C@@H](C)O)[C@@H](C)O)[C@@H](C)CC)[C@@H](C)CC)C(C)C)C(=O)N[C@@H](C)C(=O)NCC(=O)NCC(=O)N1CCC[C@H]1C(=O)N[C@@H](CO)C(=O)N[C@@H](CO)C(=O)NCC(=O)N[C@@H](C)C(=O)N1CCC[C@H]1C(=O)N1CCC[C@H]1C(=O)N1CCC[C@H]1C(=O)N[C@@H](CO)C(N)=O` [Compound 214] ({X18-βAla}-EGTFTSDYSI[Aib]LDKIAQK([AEEA-AEEA-γGlu-C20 diacid])AFVQWLIAGGPSSGAPPPS-NH2), the half-maximal effective concentration (EC50) on GLP-1 receptor [1] is 0.1 to 1 nM; on GIP receptor [2], 0.1 to 1 nM; on GIP receptor [3], greater than 1000 nM; on GLP-1 receptor [4], greater than 1000 nM. Further, the maximal response (Emax) at GLP-1 receptor [1] is 97%; on GIP receptor [2], 101%.
As for `CC[C@H](C)[C@H](NC(=O)[C@H](CO)NC(=O)[C@H](Cc1ccc(O)cc1)NC(=O)[C@H](CC(=O)O)NC(=O)[C@H](CO)NC(=O)[C@@H](NC(=O)[C@H](Cc1ccccc1)NC(=O)[C@@H](NC(=O)CNC(=O)[C@H](CCC(=O)O)NC(=O)CCNC(=O)[C@@]1(c2ccccc2)CNC(=O)C1)[C@@H](C)O)[C@@H](C)O)C(=O)N[C@@H](Cc1ccc(O)cc1)C(=O)N[C@@H](CC(C)C)C(=O)N[C@@H](CC(=O)O)C(=O)N[C@@H](CCCCN)C(=O)N[C@@H](CCC(N)=O)C(=O)N[C@@H](C)C(=O)N[C@@H](C)C(=O)N[C@@H](CCCCNC(=O)COCCOCCNC(=O)COCCOCCNC(=O)CC[C@H](NC(=O)CCCCCCCCCCCCCCCCCCC(=O)O)C(=O)O)C(=O)N[C@@H](CCC(=O)O)C(=O)N[C@@H](Cc1ccccc1)C(=O)N[C@H](C(=O)N[C@@H](CC(N)=O)C(=O)N[C@@H](Cc1c[nH]c2ccccc12)C(=O)N[C@@H](CC(C)C)C(=O)N[C@@H](CC(C)C)C(=O)N[C@@H](C)C(=O)NCC(=O)NCC(=O)N1CCC[C@H]1C(=O)N[C@@H](CO)C(=O)N[C@@H](CO)C(=O)NCC(=O)N[C@@H](C)C(=O)N1CCC[C@H]1C(=O)N1CCC[C@H]1C(=O)N1CCC[C@H]1C(=O)N[C@@H](CO)C(N)=O)C(C)C` (single isomer, unassigned) [Compound 124], the EC50 was 10 to 100 nM at GLP-1 receptor [1], 10 to 100 nM on GIP receptor [2], greater than 1000 nM at GIP receptor [3] and greater than 1000 nM on GLP-1 receptor [4]. Further, the maximal response (Emax) amounted to 97% at GLP-1 receptor [1] and 102% at GIP receptor [2].
As to `CC[C@H](C)[C@H](NC(=O)[C@H](CC(C)C)NC(=O)[C@H](Cc1c[nH]c2ccccc12)NC(=O)[C@H](CCC(N)=O)NC(=O)[C@@H](NC(=O)[C@H](Cc1ccccc1)NC(=O)[C@H](C)NC(=O)[C@H](CCCCNC(=O)COCCOCCNC(=O)COCCOCCNC(=O)CC[C@H](NC(=O)CCCCCCCCCCCCCCCCCCC(=O)O)C(=O)O)NC(=O)[C@H](CCC(N)=O)NC(=O)[C@H](C)NC(=O)[C@@H](NC(=O)[C@H](CCCCN)NC(=O)[C@H](CC(=O)O)NC(=O)[C@H](CC(C)C)NC(=O)C(C)(C)NC(=O)[C@@H](NC(=O)[C@H](CO)NC(=O)[C@H](Cc1ccc(O)cc1)NC(=O)[C@H](CC(=O)O)NC(=O)[C@H](CO)NC(=O)[C@@H](NC(=O)[C@H](Cc1ccccc1)NC(=O)[C@@H](NC(=O)CNC(=O)[C@@H](CC(=O)O)NC(=O)CCCNC(=O)C1(c2ccccc2)CNC(=O)C1)[C@@H](C)O)[C@@H](C)O)[C@@H](C)CC)[C@@H](C)CC)C(C)C)C(=O)N[C@@H](C)C(=O)NCC(=O)NCC(=O)N1CCC[C@H]1C(=O)N[C@@H](CO)C(=O)N[C@@H](CO)C(=O)NCC(=O)N[C@@H](C)C(=O)N1CCC[C@H]1C(=O)N1CCC[C@H]1C(=O)N1CCC[C@H]1C(=O)N[C@@H](CO)C(N)=O` (stereo partly drawn) [Compound 121] ({X27-GABA}-[dD]GTFTSDYSI[Aib]LDKIAQK([AEEA-AEEA-γGlu-C20 diacid])AFVQWLIAGGPSSGAPPPS-NH2), the concentration giving a half-maximal response (EC50) is 10 to 100 nM at GLP-1 receptor [1], greater than 1000 nM at GIP receptor [2], less than 1000 nM on GIP receptor [3] and greater than 1000 nM at GLP-1 receptor [4]. Further, the Emax on GLP-1 receptor [1] stood at 72%; on GIP receptor [2], 76%.
Turning to `CC[C@H](C)[C@H](NC(=O)[C@H](CC(C)C)NC(=O)[C@H](Cc1c[nH]c2ccccc12)NC(=O)[C@H](CCC(N)=O)NC(=O)[C@@H](NC(=O)[C@H](Cc1ccccc1)NC(=O)[C@H](C)NC(=O)[C@H](CCCCNC(=O)COCCOCCNC(=O)COCCOCCNC(=O)CC[C@H](NC(=O)CCCCCCCCCCCCCCCCCCC(=O)O)C(=O)O)NC(=O)[C@H](CCC(N)=O)NC(=O)[C@H](C)NC(=O)[C@@H](NC(=O)[C@H](CCCCN)NC(=O)[C@H](CC(=O)O)NC(=O)[C@H](CC(C)C)NC(=O)C(C)(C)NC(=O)[C@@H](NC(=O)[C@H](CO)NC(=O)[C@H](Cc1ccc(O)cc1)NC(=O)[C@H](CC(=O)O)NC(=O)[C@H](CO)NC(=O)[C@@H](NC(=O)[C@H](Cc1ccccc1)NC(=O)[C@@H](NC(=O)CNC(=O)[C@H](CCC(=O)O)NC(=O)CCNC(=O)C(C)(C)C)[C@@H](C)O)[C@@H](C)O)[C@@H](C)CC)[C@@H](C)CC)C(C)C)C(=O)N[C@@H](C)C(=O)NCC(=O)NCC(=O)N1CCC[C@H]1C(=O)N[C@@H](CO)C(=O)N[C@@H](CO)C(=O)NCC(=O)N[C@@H](C)C(=O)N1CCC[C@H]1C(=O)N1CCC[C@H]1C(=O)N1CCC[C@H]1C(=O)N[C@@H](CO)C(N)=O` [Compound 197] ({Piv-βAla}-EGTFTSDYSI[Aib]LDKIAQK([AEEA-AEEA-γGlu-C20 diacid])AFVQWLIAGGPSSGAPPPS-NH2), the EC50 is 0.1 to 1 nM at GLP-1 receptor [1], 10 to 100 nM on GIP receptor [2], greater than 1000 nM on GIP receptor [3] and greater than 1000 nM at GLP-1 receptor [4]. For the same compound, the values for the Emax at GLP-1 receptor [1] and at GIP receptor [2] were 96% and 97%, respectively.
